Measurements published in US7999119B2, “Compounds having CRTH2 antagonist activity” (Oxagen Limited, priority 2006, dated 2011).
pIC50: −log10 of the molar value. Where “and” joins values, the source holds several entries; their conditions need not be identical. Identical values can stand only once. Like-named read-outs stand apart in the source and are kept apart here.

Legend:
[1] = test system: PGD2 induced eosinophil shape change; test: Human whole blood eosinophil shape change assay; format: cell-based; conditions: Homo sapiens, Eosinophil
Method in brief: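 Compound added to human whole blood and incubated 15 min at 37° C., 5% CO2, before cell fixation and red-cell lysis. Leukocytes analysed by FACS, eosinophils gated by autofluorescence, 2000 events per sample, triplicate; read-out is inhibition of PGD2-induced eosinophil shape change.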

[2] = Pharmacokinetics following oral administration in the rat; format: in vivo
Method in brief: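 Rats (groups of 3) given single oral gavage of 0.3 mg/mL suspension in 1% CMC at 10 mL/kg. Serial tail-vein catheter blood, terminal cardiac puncture; heparinised plasma assayed by LC-MS/MS.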

[3] = test system: DK-PGD2-induced blood eosinophilia; test: Inhibition of DK-PGD2-induced blood eosinophilia in rats; format: in vivo, rat; conditions: female rats, oral dosing 30 min before 10 μg DK-PGD2 intracardiac; ED50 from dose-response curve; the values are: ED50
Method in brief: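 Female rats (175–250 g) were given compound orally in DMSO/water and 30 min later received 10 μg DK-PGD2 intracardially under isoflurane. Blood was sampled 60 min after challenge. Eosinophils were counted from total leukocytes plus May-Grunwald/Giemsa differential counts, with ≥5 animals/group pooled across experiments and ED50 taken from the dose-response curve.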

[4] = rat, 3 mg/kg p.o, individual male animals, 3 mg/kg

Compound: Cc1c(Cc2ccccc2S(=O)(=O)c2ccc(F)cc2)c2cc(F)ccc2n1CC(=O)O [Compound 3, 2-(5-fluoro-3-(2-(4-fluorophenylsulfonyl)benzyl)-2-methyl-1H-indol-1-yl)acetic acid]
- pIC50 ([1]; 10 nm PGD2-induced eosinophil shape change, human whole blood, read-out: Whole Blood IC50): 8.22
- pIC50 ([1]; Table 12 summary of whole blood eosinophil shape change IC50, read-out: IC50 (μmol)): 8.22
- IC50 ([1]; whole blood eosinophil shape change IC50 converted to ng/mL, read-out: IC50): 2.7 ng/mL
- concentration at 0.25 h ([2]; male, rat, plasma, po, 3 mg/kg, rat, 3 mg/kg oral, 0.25 h, individual male animals, read-out: Concentration in Blood): 836 ng/mL
- concentration at 0.25 h ([2]; male, rat, plasma, po, 3 mg/kg, rat, 3 mg/kg oral, 0.25 h, mean, read-out: Concentration in Blood, Mean): 1100 ng/mL
- concentration at 0.5 h ([2]; male, rat, plasma, po, 3 mg/kg, rat, 3 mg/kg oral, 0.5 h, individual male animals, read-out: Concentration in Blood): 2060 ng/mL
- concentration at 0.5 h ([2]; male, rat, plasma, po, 3 mg/kg, rat, 3 mg/kg oral, 0.5 h, mean, read-out: Concentration in Blood, Mean): 2250 ng/mL
- concentration at 1 h ([2]; male, rat, plasma, po, 3 mg/kg, rat, 3 mg/kg oral, 1 h, individual male animals, read-out: Concentration in Blood): 2490 ng/mL
- concentration at 1 h ([2]; male, rat, plasma, po, 3 mg/kg, rat, 3 mg/kg oral, 1 h, mean, read-out: Concentration in Blood, Mean): 3140 ng/mL
- concentration at 2 h ([2]; male, rat, plasma, po, 3 mg/kg, rat, 3 mg/kg oral, 2 h, individual male animals, read-out: Concentration in Blood): 4320 ng/mL
- concentration at 2 h ([2]; male, rat, plasma, po, 3 mg/kg, rat, 3 mg/kg oral, 2 h, mean, read-out: Concentration in Blood, Mean): 4080 ng/mL
- concentration at 4 h ([2]; male, rat, plasma, po, 3 mg/kg, rat, 3 mg/kg oral, 4 h, individual male animals, read-out: Concentration in Blood): 3130 ng/mL
- concentration at 4 h ([2]; male, rat, plasma, po, 3 mg/kg, rat, 3 mg/kg oral, 4 h, mean, read-out: Concentration in Blood, Mean): 2400 ng/mL
- concentration at 6 h ([2]; male, rat, plasma, po, 3 mg/kg, rat, 3 mg/kg oral, 6 h, individual male animals, read-out: Concentration in Blood): 1330 ng/mL
- concentration at 6 h ([2]; male, rat, plasma, po, 3 mg/kg, rat, 3 mg/kg oral, 6 h, mean, read-out: Concentration in Blood, Mean): 1140 ng/mL
- concentration at 8 h ([2]; male, rat, plasma, po, 3 mg/kg, rat, 3 mg/kg oral, 8 h, individual male animals, read-out: Concentration in Blood): 1160 ng/mL
- concentration at 8 h ([2]; male, rat, plasma, po, 3 mg/kg, rat, 3 mg/kg oral, 8 h, mean, read-out: Concentration in Blood, Mean): 847 ng/mL
- concentration at 12 h ([2]; male, rat, plasma, po, 3 mg/kg, rat, 3 mg/kg oral, 12 h, mean, read-out: Concentration in Blood, Mean): 277 ng/mL
- concentration at 24 h ([2]; male, rat, plasma, po, 3 mg/kg, rat, 3 mg/kg oral, 24 h, mean, read-out: Concentration in Blood, Mean): 16.1 ng/mL
- AUC(0-inf) ([2]; male, rat, plasma, po, 3 mg/kg, rat, 3 mg/kg p.o, individual male animals, read-out: AUCinf): 24400 ng·h/mL
- Cmax ([2]; male, rat, plasma, po, 3 mg/kg, rat, 3 mg/kg p.o, individual male animals, read-out: Cmax): 4320 ng/mL
- Tmax ([2]; male, rat, plasma, po, 3 mg/kg, rat, 3 mg/kg p.o, individual male animals, read-out: Tmax): 2 h
- half-life ([2]; male, rat, plasma, po, 3 mg/kg, rat, 3 mg/kg p.o, individual male animals, read-out: T½ (converted)): 3.26 h
- AUC(0-inf) ([2]; male, rat, plasma, po, 3 mg/kg, rat, 3 mg/kg p.o, mean, summary without unit (Table 12), read-out: AUCinf (mean)): 21100 ng·h/mL
- Cmax ([2]; male, rat, plasma, po, 3 mg/kg, rat, 3 mg/kg p.o, mean, summary without unit (Table 12), read-out: Cmax (mean)): 4080 ng/mL
- AUC(0-inf) ([2]; male, rat, plasma, po, 3 mg/kg, rat, 3 mg/kg p.o, mean, read-out: AUCinf, Mean): 21100 ng·h/mL
- Cmax ([2]; male, rat, plasma, po, 3 mg/kg, rat, 3 mg/kg p.o, mean, read-out: Cmax, Mean): 4080 ng/mL
- Tmax ([2]; male, rat, plasma, po, 3 mg/kg, rat, 3 mg/kg p.o, mean, read-out: Tmax, Mean): 2 h
- half-life ([2]; male, rat, plasma, po, 3 mg/kg, rat, 3 mg/kg p.o, mean, read-out: T½, Mean (converted)): 2.8 h
- Fold over IC50 at 12 h ([2]; mean blood concentration at 12 h (rat, 3 mg/kg p.o.) divided by whole blood IC50 in ng/ml): 102
- Concentration in Blood ([2]; rat, 3 mg/kg oral, 0.25 h, individual male animals, 3 mg/kg): 1130.7 ng/mL and 1337.2 ng/mL
- Concentration in Blood ([2]; rat, 3 mg/kg oral, 0.5 h, individual male animals, 3 mg/kg): 2205.2 ng/mL and 2487.5 ng/mL
- Concentration in Blood ([2]; rat, 3 mg/kg oral, 1 h, individual male animals, 3 mg/kg): 3547.8 ng/mL and 3393.7 ng/mL
- Concentration in Blood ([2]; rat, 3 mg/kg oral, 2 h, individual male animals, 3 mg/kg): 3685.1 ng/mL and 4221.0 ng/mL
- Concentration in Blood ([2]; rat, 3 mg/kg oral, 4 h, individual male animals, 3 mg/kg): 2023.1 ng/mL and 2053.8 ng/mL
- Concentration in Blood ([2]; rat, 3 mg/kg oral, 6 h, individual male animals, 3 mg/kg): 995.0 ng/mL and 1098.0 ng/mL
- Concentration in Blood ([2]; rat, 3 mg/kg oral, 8 h, individual male animals, 3 mg/kg): 699.5 ng/mL and 678.5 ng/mL
- Concentration in Blood ([2]; rat, 3 mg/kg oral, 12 h, individual male animals, 3 mg/kg): 465.3 ng/mL and 163.3 ng/mL and 201.1 ng/mL
- Concentration in Blood ([2]; rat, 3 mg/kg oral, 24 h, individual male animals, 3 mg/kg): 38.2 ng/mL and 0.0 ng/mL and 10.1 ng/mL
- AUCinf [2, 4]: 17738 ng·h/mL and 19110 ng·h/mL
- Cmax [2, 4]: 3685 ng/mL and 4221 ng/mL
- T½ [2, 4]: 2.26 h and 2.62 h
- Potency in inhibition of DK-PGD2-induced blood eosinophilia [3]: 0.01 mg/kg
